Measurements as given in the supplement of paper PMC10627819.

Assays:
B. subtilis 168 [1] = assay: fitness (endpoint OD595 vs no drug) (fraction); higher = more growth
Method in brief: (§1)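 With the first reading as background, OD595 was measured every 30 min for 14 h in 384-well plates kept at 37 °C and inoculated at OD595 0.01. TSB, LB Lennox or CY was the medium. Fitness is the optical density at the transition into stationary phase divided by the robust mean of no-drug control wells, with a cap of 1.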

S. pneumoniae D39V [2] = assay: as above
Method in brief: as §1

B. subtilis 168 [3] = assay: Bliss interaction score (quartile over a dose matrix) (fitness difference); higher = more antagonism (negative = synergy)
Method in brief: (§2)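 Quartiles summarise the Bliss score over technical, biological and donor/recipient replicates, where the score is observed minus expected fitness under a product model. Expected fitness uses single-drug values inferred from combination data. Fitness is OD595 at entry into stationary phase over the plate's robust no-drug mean, capped at 1.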

S. aureus DSM 20231 = assay: as above
Method in brief: as §2

S. aureus Newman = assay: as above
Method in brief: as §2

S. pneumoniae D39V [4] = assay: as above
Method in brief: as §2
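For Bliss interaction score (quartile over a dose matrix) in this document: first quartile when negative (synergy) and third quartile when positive (antagonism).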

C[C@H]1COc2c(N3CCN(C)CC3)c(F)cc3c(=O)c(C(=O)O)cn1c23 [Levofloxacin] + CCN(CC)CCOC(=O)c1ccc(N)cc1 [Procaine]
fitness, one replicate
Conditions	first compound 0.001 µg/mL	first compound 0.002 µg/mL	first compound 0.0039 µg/mL	first compound 0.2 µg/mL	first compound 0.4 µg/mL	first compound 0.8 µg/mL
B. subtilis 168 [1], partner 85.5 µg/mL	0.882	0.83	0.861	–	–	–
B. subtilis 168 [1], partner 171 µg/mL	0.923	0.824	0.869	–	–	–
B. subtilis 168 [1], partner 342 µg/mL	0.912	0.849	0.872	–	–	–
S. pneumoniae D39V [2], partner 85.5 µg/mL	–	–	–	0.924	0.815	0.372
S. pneumoniae D39V [2], partner 171 µg/mL	–	–	–	≥ 1	0.853	0.49
S. pneumoniae D39V [2], partner 342 µg/mL	–	–	–	0.923	0.86	0.501

fitness
Conditions	first compound 0.0312 µg/mL	first compound 0.0625 µg/mL	first compound 0.125 µg/mL	first compound 0.1725 µg/mL	first compound 0.345 µg/mL	first compound 0.69 µg/mL
B. subtilis 168 [1], partner 85.5 µg/mL	0.0534	0.0358	0.0491	–	–	–
B. subtilis 168 [1], partner 171 µg/mL	0.0369	0.0387	0.0458	–	–	–
B. subtilis 168 [1], partner 342 µg/mL	0.0441	0.0408	0.0398	–	–	–
S. pneumoniae D39V [2], partner 85.5 µg/mL	–	–	–	0.937	0.878	0.602
S. pneumoniae D39V [2], partner 171 µg/mL	–	–	–	0.946	0.87	0.62
S. pneumoniae D39V [2], partner 342 µg/mL	–	–	–	0.918	0.877	0.625

Conditions	Bliss interaction score
B. subtilis 168 [3]	-0.0156
S. aureus DSM 20231	-0.108
S. aureus Newman	0.108
S. pneumoniae D39V [4]	0.053

C[C@H]1COc2c(N3CCN(C)CC3)c(F)cc3c(=O)c(C(=O)O)cn1c23 [Levofloxacin] + CN1C2=CC=CC=C2N=C3C1=CC=CC3=O [Pyocyanin]
fitness, one replicate
Conditions	first compound 0.001 µg/mL	first compound 0.002 µg/mL	first compound 0.0039 µg/mL	first compound 0.2 µg/mL	first compound 0.4 µg/mL	first compound 0.8 µg/mL
B. subtilis 168 [1], partner 1.25 µg/mL	0.891	0.8	0.846	–	–	–
B. subtilis 168 [1], partner 2.5 µg/mL	0.864	0.813	0.795	–	–	–
B. subtilis 168 [1], partner 5 µg/mL	0.68	0.621	0.64	–	–	–
S. pneumoniae D39V [2], partner 0.325 µg/mL	–	–	–	0.878	0.371	0.296
S. pneumoniae D39V [2], partner 0.65 µg/mL	–	–	–	0.965	0.875	0.679

fitness
Conditions	first compound 0.0312 µg/mL	first compound 0.0625 µg/mL	first compound 0.125 µg/mL	first compound 0.1725 µg/mL	first compound 0.345 µg/mL	first compound 0.69 µg/mL
B. subtilis 168 [1], partner 1.25 µg/mL	0.0394	0.0289	0.03	–	–	–
B. subtilis 168 [1], partner 2.5 µg/mL	0.0377	0.0408	0.0364	–	–	–
B. subtilis 168 [1], partner 5 µg/mL	0.0364	0.0433	0.0258	–	–	–
S. pneumoniae D39V [2], partner 0.325 µg/mL	–	–	–	0.988	0.936	0.668
S. pneumoniae D39V [2], partner 0.65 µg/mL	–	–	–	0.958	0.896	0.596
S. pneumoniae D39V [2], partner 1.3 µg/mL	–	–	–	0.782	0.74	0.459

Conditions	Bliss interaction score
B. subtilis 168 [3]	-0.0161
S. aureus DSM 20231	0.0335
S. aureus Newman	-0.0335
S. pneumoniae D39V [4]	0.0846

C[C@H]1COc2c(N3CCN(C)CC3)c(F)cc3c(=O)c(C(=O)O)cn1c23 [Levofloxacin] + CN(C)C(=O)C(CCN1CCC(O)(c2ccc(Cl)cc2)CC1)(c1ccccc1)c1ccccc1 [Loperamide]
fitness, one replicate
Conditions	first compound 0.001 µg/mL	first compound 0.002 µg/mL	first compound 0.0039 µg/mL	first compound 0.2 µg/mL	first compound 0.4 µg/mL	first compound 0.8 µg/mL
B. subtilis 168 [1], partner 25 µg/mL	0.807	0.714	0.714	–	–	–
B. subtilis 168 [1], partner 50 µg/mL	0.618	0.172	0.206	–	–	–
B. subtilis 168 [1], partner 100 µg/mL	0.613	0.51	0.581	–	–	–
S. pneumoniae D39V [2], partner 68.57 µg/mL	–	–	–	0.913	0.896	0.864

Conditions	fitness
B. subtilis 168 [1], first compound 0.0312 µg/mL, partner 25 µg/mL	0.0337
B. subtilis 168 [1], first compound 0.0312 µg/mL, partner 50 µg/mL	0.0298
B. subtilis 168 [1], first compound 0.0312 µg/mL, partner 100 µg/mL	0.0296
B. subtilis 168 [1], first compound 0.0625 µg/mL, partner 25 µg/mL	0.0122
B. subtilis 168 [1], first compound 0.0625 µg/mL, partner 50 µg/mL	0.0229
B. subtilis 168 [1], first compound 0.0625 µg/mL, partner 100 µg/mL	0.0349
B. subtilis 168 [1], first compound 0.125 µg/mL, partner 25 µg/mL	0.0335
B. subtilis 168 [1], first compound 0.125 µg/mL, partner 50 µg/mL	0.0386
B. subtilis 168 [1], first compound 0.125 µg/mL, partner 100 µg/mL	0.0401
S. pneumoniae D39V [2], first compound 0.1725 µg/mL, partner 20 µg/mL	≥ 1
S. pneumoniae D39V [2], first compound 0.1725 µg/mL, partner 40 µg/mL	≥ 1
S. pneumoniae D39V [2], first compound 0.2 µg/mL, partner 17.14 µg/mL	0.877
S. pneumoniae D39V [2], first compound 0.2 µg/mL, partner 34.28 µg/mL	0.9
S. pneumoniae D39V [2], first compound 0.345 µg/mL, partner 20 µg/mL	0.998
S. pneumoniae D39V [2], first compound 0.345 µg/mL, partner 40 µg/mL	≥ 1
S. pneumoniae D39V [2], first compound 0.4 µg/mL, partner 17.14 µg/mL	0.901
S. pneumoniae D39V [2], first compound 0.4 µg/mL, partner 34.28 µg/mL	0.883
S. pneumoniae D39V [2], first compound 0.69 µg/mL, partner 20 µg/mL	0.787
S. pneumoniae D39V [2], first compound 0.69 µg/mL, partner 40 µg/mL	0.837
S. pneumoniae D39V [2], first compound 0.8 µg/mL, partner 34.28 µg/mL	0.642

Conditions	Bliss interaction score
B. subtilis 168 [3]	0.155
S. aureus DSM 20231	0.0444
S. aureus Newman	0.0501
S. pneumoniae D39V [4]	0.189

C[C@H]1COc2c(N3CCN(C)CC3)c(F)cc3c(=O)c(C(=O)O)cn1c23 [Levofloxacin] + CN(C)c1cc(NC(=O)CNC(C)(C)C)c(O)c2c1C[C@H]1C[C@H]3[C@H](N(C)C)C(O)=C(C(N)=O)C(=O)[C@@]3(O)C(O)=C1C2=O [Tigecycline]
fitness, B. subtilis 168 [1], one replicate
Conditions	partner 0.039 µg/mL	partner 0.078 µg/mL	partner 0.125 µg/mL	partner 0.156 µg/mL	partner 0.25 µg/mL	partner 0.5 µg/mL
first compound 0.001 µg/mL	0.897	0.893	–	0.926	–	–
first compound 0.002 µg/mL	0.932	0.911	≥ 1	0.878	0.862	0.993
first compound 0.0039 µg/mL	0.847	0.855	0.985	0.971	0.955	0.887
first compound 0.0078 µg/mL	–	–	0.94	–	0.94	0.885

fitness
Conditions	first compound 0.0312 µg/mL	first compound 0.0625 µg/mL	first compound 0.125 µg/mL	first compound 0.1725 µg/mL	first compound 0.2 µg/mL	first compound 0.345 µg/mL	first compound 0.4 µg/mL	first compound 0.69 µg/mL	first compound 0.8 µg/mL
B. subtilis 168 [1], partner 0.039 µg/mL	0.0258	0.0305	0.0314	–	–	–	–	–	–
B. subtilis 168 [1], partner 0.078 µg/mL	0.0327	0.0457	0.0438	–	–	–	–	–	–
B. subtilis 168 [1], partner 0.156 µg/mL	0.0426	0.0476	0.0441	–	–	–	–	–	–
S. pneumoniae D39V [2], partner 0.65 µg/mL	–	–	–	0.96	0.853	0.88	0.712	0.456	0.301
S. pneumoniae D39V [2], partner 1.3 µg/mL	–	–	–	0.949	0.842	0.85	0.713	0.537	0.35
S. pneumoniae D39V [2], partner 2.6 µg/mL	–	–	–	0.926	0.81	0.835	0.705	0.544	0.321

Conditions	Bliss interaction score
B. subtilis 168 [3]	-0.0381
S. aureus DSM 20231	-0.101
S. aureus Newman	-0.045
S. pneumoniae D39V [4]	-0.132
